Data reported in ChEMBL document CHEMBL3352064, “Synthesis and bioactive evaluation of a novel series of coumarinazoles” (Bioorg Med Chem Lett, 2014).
Converted amounts (≈) assume the structure as drawn.

Key:
Escherichia coli = assay: Antimicrobial activity against Escherichia coli JM109 by two-fold serial dilution technique; assay type: functional
Pseudomonas aeruginosa = assay: Antimicrobial activity against Pseudomonas aeruginosa by two-fold serial dilution technique; assay type: functional
Staphylococcus aureus = assay: Antimicrobial activity against methicillin-resistant Staphylococcus aureus N315 by two-fold serial dilution technique; assay type: functional
Aspergillus flavus = assay: Antimicrobial activity against Aspergillus flavus by two-fold serial dilution technique; assay type: functional
Saccharomyces cerevisiae = assay: Antimicrobial activity against Saccharomyces cerevisiae by two-fold serial dilution technique; assay type: functional
Micrococcus luteus = assay: Antimicrobial activity against Micrococcus luteus ATCC 4698 by two-fold serial dilution technique; assay type: functional
Bacillus subtilis = assay: Antimicrobial activity against Bacillus subtilis by two-fold serial dilution technique; assay type: functional
Candida = assay: Antimicrobial activity against Candida mycoderma by two-fold serial dilution technique; assay type: functional
[1] = n-Octanol-water partition coefficient, log P of the compound after 24 hrs by shake flask method; assay type: physicochemical
Shigella dysenteriae = assay: Antimicrobial activity against Shigella dysenteriae by two-fold serial dilution technique; assay type: functional
Cyberlindnera jadinii = assay: Antimicrobial activity against Candida utilis by two-fold serial dilution technique; assay type: functional; details: Williopsis jadinii
Candida albicans = assay: Antimicrobial activity against Candida albicans by two-fold serial dilution technique; assay type: functional

SMILES | MIC (Escherichia coli) [µg/mL] | MIC (Pseudomonas aeruginosa) [µg/mL] | MIC (Staphylococcus aureus) [µg/mL] | MIC (Aspergillus flavus) [µg/mL] | MIC (Saccharomyces cerevisiae) [µg/mL] | MIC (Micrococcus luteus) [µg/mL] | MIC (Bacillus subtilis) [µg/mL] | MIC (Candida) [µg/mL] | logP at 24 h [1] | MIC (Shigella dysenteriae) [µg/mL] | MIC (Cyberlindnera jadinii) [µg/mL] | MIC (Candida albicans) [µg/mL]
Cc1cc(=O)oc2cc(OCC(O)CSc3nc4ccccc4[nH]3)ccc12 (stereo not drawn) | 0.5 (≈ 1.31 µM) | 64 (≈ 167 µM) | 32 (≈ 83.7 µM) | 16 (≈ 41.8 µM) | 64 (≈ 167 µM) | 16 (≈ 41.8 µM) | 32 (≈ 83.7 µM) | 16 (≈ 41.8 µM) | 0.49 | 64 (≈ 167 µM) | 0.5 (≈ 1.31 µM) | 32 (≈ 83.7 µM)
Cc1cc(=O)oc2cc(OCC(O)Cn3cncn3)ccc12 (stereo not drawn) | 64 (≈ 212 µM) | 4 (≈ 13.3 µM) | 32 (≈ 106 µM) | 6 (≈ 19.9 µM) | 32 (≈ 106 µM) | 16 (≈ 53.1 µM) | 32 (≈ 106 µM) | 16 (≈ 53.1 µM) | 0.45 | 32 (≈ 106 µM) | 4 (≈ 13.3 µM) | 4 (≈ 13.3 µM)
Cc1cc(=O)oc2cc(OCC3CO3)ccc12 (stereo not drawn) | 0.5 (≈ 2.15 µM) | 8 (≈ 34.4 µM) | 128 (≈ 551 µM) | 1 (≈ 4.31 µM) | 1 (≈ 4.31 µM) | 4 (≈ 17.2 µM) | 2 (≈ 8.61 µM) | 8 (≈ 34.4 µM) |  | 4 (≈ 17.2 µM) | 32 (≈ 138 µM) | 16 (≈ 68.9 µM)
Cc1cc(=O)oc2cc(OCC(O)CSc3nc4ccccc4[nH]3)c(OCC(O)CSc3nc4ccccc4[nH]3)cc12 (stereo not drawn) | 0.5 (≈ 0.827 µM) | 16 (≈ 26.5 µM) | 64 (≈ 106 µM) | 64 (≈ 106 µM) | 16 (≈ 26.5 µM) | 32 (≈ 52.9 µM) | 64 (≈ 106 µM) | 16 (≈ 26.5 µM) | 0.58 | 32 (≈ 52.9 µM) | 2 (≈ 3.31 µM) | 8 (≈ 13.2 µM)
Cc1cc(=O)oc2cc(OCC(O)Cn3nnc4ccccc43)ccc12 (stereo not drawn) | 16 (≈ 45.5 µM) | 32 (≈ 91.1 µM) | 16 (≈ 45.5 µM) | 256 (≈ 729 µM) | 8 (≈ 22.8 µM) | 32 (≈ 91.1 µM) | 16 (≈ 45.5 µM) | 16 (≈ 45.5 µM) | 0.6 | 64 (≈ 182 µM) | 16 (≈ 45.5 µM) | 4 (≈ 11.4 µM)
Cc1cc(=O)oc2cc(OCC(O)Cn3nnc4ccccc43)c(OCC(O)Cn3nnc4ccccc43)cc12 (stereo not drawn) | 32 (≈ 59 µM) | 32 (≈ 59 µM) | 32 (≈ 59 µM) | 256 (≈ 472 µM) | 32 (≈ 59 µM) | 16 (≈ 29.5 µM) | 64 (≈ 118 µM) | 16 (≈ 29.5 µM) | 0.48 | 64 (≈ 118 µM) | 16 (≈ 29.5 µM) | 8 (≈ 14.7 µM)
Cc1cc(=O)oc2cc(OCC(O)Cn3cncn3)c(OCC(O)Cn3cncn3)cc12 (stereo not drawn) | 1 (≈ 2.26 µM) | 32 (≈ 72.3 µM) | 8 (≈ 18.1 µM) | 32 (≈ 72.3 µM) | 32 (≈ 72.3 µM) | 32 (≈ 72.3 µM) | 16 (≈ 36.2 µM) | 4 (≈ 9.04 µM) | 0.65 | 16 (≈ 36.2 µM) | 4 (≈ 9.04 µM) | 1 (≈ 2.26 µM)
